Experimental findings from US20230100235A1, “ANTICANCER AGENT COMPOSITION” (CARNA BIOSCIENCES, INC., priority 2020, published 2023) are described below.

In this assay the test system is BTK-C481S-mutant OCI-Ly10 cells. Kind of assay: Combined effect by BLISS score, BTK-C481S-mutant OCI-Ly10. Particulars: combination with venetoclax, positive = synergistic. Type of assay: cell-based, Human. The method, then: After 96 hours of culture, an Alamar Blue reagent was added, and 3 hours later, fluorescence of excitation wavelength 560 nm/fluorescence wavelength 590 nm was measured. Cell proliferation inhibition rate and viability (100−inhibition rate %) were determined by setting a compound-free and cell-free well as 100% and a compound-free and cell-containing well as 0%.
BTK-C481S-mutant OCI-Ly10 cells were produced by point mutation knock-in using the CRISPR-Cas9 system. Cas9 protein (Thermo Fisher Scientific Inc.), guide RNA prepared with GeneArt™ Precision gRNA Synthesis Kit (Thermo Fisher Scientific Inc.), and a single-stranded synthetic oligonucleotide to replace 481st cysteine residue of BTK with a serine residue were introduced into OCI-Ly10 cells by an electroporation method. The resulting modified OCI-Ly10 cells were cultured in the presence of ibrutinib, and the grown cells were used as BTK-C481S-mutant OCI-Ly10 cells. Transduction of the mutation was confirmed by genomic DNA and mRNA sequence analysis.
The BLISS score was calculated in the same manner as in Example 1.

For `Nc1nc(-c2cccc(-n3ccc4cc(C5CC5)cc(F)c4c3=O)c2CO)c2cc(C3=CCN(C4COC4)CC3)[nH]c2n1` [Compound (I-A), 2-(3-{2-amino-6-[1-(oxetan-3-yl)-1,2,3,6-tetrahydropyridin-4-yl]-7H-pyrrolo[2,3-d]pyrimidin-4-yl}-2-(hydroxymethyl)phenyl)-6-cyclopropyl-8-fluoroisoquinolin-1(2H)-one], the BLISS score entry is reported as “positive values”.
